Results published in patent publication US20150366819A1, “COMPOSITIONS AND METHODS FOR TREATING HOOF DISEASES” (AGROCHEM, INC., priority 2008, published 2015).

Assays:
[1] = system: Hydrolyzed Bovine Dry Collagen protein medium; assay: Cross-linking test: skin (crust) formation on protein medium after spraying
Procedure: Tests were performed in order to obtain a skin (crust) on the protein medium by using a cross-linking agent. Time, temperature and skim formation were monitored. Tests were performed at 40° F.—both medium and solutions were cooled to test temperature. Test medium was prepared by mixing a solution containing 85% D.I. water and 15% Hydrolyzed Bovine Dry Collagen (purchased from Milligan & Higgens). Approx 4 oz of the preparation was put into Petri dishes, placed in a refrigerator for thirty minutes before reacclimatizing at room temperature, ready for testing. Subsequently, the various test solutions were poured into 4 oz bottles with spray nozzles and 10 ml of solution was sprayed onto the medium in the petri dishes from a distance of 6 inches, timed and viewed at 15 minute intervals and the contents of the petri dish was then scored for skin formation. The time and extent of skin formation was noted and transposed to graphs (see FIGS. 1-4).
A second series of tests were run using Egg Albumin Powder (purchased from J.T. Baker) as the protein medium, prepared by mixing 85% D.I. water and 15% Egg Albumin Powder. Both test produced identical results.
Lab testing was performed to assess cross-linking ability of various compositions. […]

[2] = system: digital dermatitis lesions; assay: Actual field application on digital dermatitis lesions (scab formation); format: in vivo, cow; conditions: glutaraldehyde at less than 5%, applied on digital dermatitis lesions

SMILES	cross-linking effects, maximum extent of skin formation ([1]; glyoxal alone, scored from 0 to 10, FIG. 3)	cross-linking of test samples (in words) ([1]; glutaraldehyde reduced to less than 5%, FIG. 2)	facilitating adequate scab formation in an acceptable time span [2]
O=CC=O [glyoxal]	2.5	–	–
O=CCCCC=O [glutaraldehyde]	–	significantly less cross-linking	ineffective
